Some test systems named below: UO-31 renal; RXF 393 renal; 786-0 renal; DU-145 prostate; NCI-H522 lung; M14 melanoma; SW-620 colon; KM12 colon; HCT-116 colon; MDA-MB-231 breast; TK-10 renal; OVCAR-3 ovarian; SNB-19 CNS; LOX IMVI melanoma; UACC-62 melanoma; HT29 colon; HOP-62 NSCLC; NCI-H226 lung; MDA-N.
What all share (assay): inhibition of tumour cell growth, NCI panel, 48 h

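In this assay, cells in 96-well plates receive the compound at five concentrations for 48 hours. Endpoints are linearly interpolated between the surrounding concentrations. The concentration for full growth arrest is given as TGI.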 Where only a bound is given, the exact number is not on record here.

As for `CC(=O)NC1C(OC2C(CO)OC(OCC3OC(n4ccc(N)nc4=O)C(O)C3O)C(NC(C)=O)C2O)OC(CO)C(O)C1O` (stereo not given), the TGI in the experiment on UO-31 renal, in the experiment on RXF 393 renal, in the experiment on 786-0 renal, in the experiment on DU-145 prostate, with NCI-H522 lung and in the experiment with M14 melanoma was over 100 µM throughout. Further, the TGI in the experiment on SW-620 colon, with KM12 colon, in the experiment with HCT-116 colon, in the experiment on MDA-MB-231 breast, in the experiment with TK-10 renal and with OVCAR-3 ovarian was over 100 µM each time. In addition, the TGI in the experiment on SNB-19 CNS, with LOX IMVI melanoma, in the experiment on UACC-62 melanoma, in the experiment with HT29 colon, with HOP-62 NSCLC and in the experiment with NCI-H226 lung was over 100 µM in each case.
As to `Cn1c(=O)n2c(-c3ccccc3)c(-c3ccccc3)n2c1=O`, the TGI in the experiment on UO-31 renal, in the experiment on RXF 393 renal, in the experiment on 786-0 renal, in the experiment with M14 melanoma, with SW-620 colon and in the experiment on KM12 colon was over 100 µM throughout. Further, the TGI in the experiment with HCT-116 colon, in the experiment with MDA-MB-231 breast, with TK-10 renal, with OVCAR-3 ovarian, with SNB-19 CNS and with LOX IMVI melanoma was over 100 µM throughout. Besides, the TGI with UACC-62 melanoma, in the experiment with HT29 colon, in the experiment with HOP-62 NSCLC, with MDA-N and with NCI-H226 lung was over 100 µM each time.
For the molecule `CCOC(=O)c1c(-c2ccccc2)nc2c(OC)nccn12`, the TGI is over 100 µM in the experiment on UO-31 renal; 80.9 µM in the experiment with RXF 393 renal; over 100 µM with 786-0 renal; over 100 µM in the experiment with DU-145 prostate; over 100 µM with NCI-H522 lung; over 100 µM in the experiment on M14 melanoma. Besides, the TGI in the experiment on SW-620 colon, with KM12 colon, in the experiment with HCT-116 colon, in the experiment with MDA-MB-231 breast, in the experiment with TK-10 renal and in the experiment on OVCAR-3 ovarian was over 100 µM each time. Also, the TGI in the experiment on SNB-19 CNS, in the experiment with LOX IMVI melanoma, with UACC-62 melanoma, with HT29 colon, with HOP-62 NSCLC and with NCI-H226 lung was over 100 µM in each case.
For `C=C1CC2CC(=O)C(O)C(C1)C2` (stereo not given), the TGI in the experiment on UO-31 renal, in the experiment with RXF 393 renal, in the experiment with 786-0 renal, in the experiment on DU-145 prostate, in the experiment with NCI-H522 lung and in the experiment with M14 melanoma was over 100 µM throughout. Besides, the TGI in the experiment with SW-620 colon, in the experiment with KM12 colon, in the experiment with HCT-116 colon, in the experiment on TK-10 renal, in the experiment on OVCAR-3 ovarian and in the experiment on LOX IMVI melanoma was over 100 µM throughout. The TGI in the experiment with UACC-62 melanoma, in the experiment with HT29 colon, in the experiment with HOP-62 NSCLC, with MDA-N and in the experiment on NCI-H226 lung was over 100 µM throughout.
In the case of `COc1cc2c(cc1OC)-c1c(oc3cc(OC4OC(CO)C(O)C(O)C4O)c(OC)cc3c1=O)C(O)O2` (stereo not given), the TGI in the experiment with UO-31 renal, in the experiment with RXF 393 renal, in the experiment on 786-0 renal, in the experiment with DU-145 prostate, in the experiment with NCI-H522 lung and with M14 melanoma was over 100 µM each time. Moreover, the TGI with SW-620 colon, with KM12 colon, in the experiment with HCT-116 colon, in the experiment with MDA-MB-231 breast, with TK-10 renal and with OVCAR-3 ovarian was over 100 µM throughout. Moreover, the TGI in the experiment on SNB-19 CNS, in the experiment on LOX IMVI melanoma, with UACC-62 melanoma, in the experiment with HT29 colon, in the experiment on HOP-62 NSCLC and with NCI-H226 lung was over 100 µM in each case.
`COc1ccc2c(c1)CCN1CCCc3ccc(OC)cc3C21` (stereo not given): the TGI in the experiment on UO-31 renal, in the experiment on RXF 393 renal, in the experiment on 786-0 renal, with DU-145 prostate, with NCI-H522 lung and in the experiment with M14 melanoma was over 100 µM throughout. Further, the TGI with SW-620 colon, with KM12 colon, in the experiment on HCT-116 colon, in the experiment on MDA-MB-231 breast, in the experiment with TK-10 renal and with OVCAR-3 ovarian was over 100 µM throughout. In addition, the TGI in the experiment with SNB-19 CNS, in the experiment on LOX IMVI melanoma, in the experiment on UACC-62 melanoma, in the experiment on HT29 colon, in the experiment with HOP-62 NSCLC and in the experiment on NCI-H226 lung was over 100 µM throughout.
As to `CC(=O)C1=C(C)N2C(=NC3=C(CCc4ccccc43)C2c2cccc(Br)c2)S1` (stereo not given), the TGI in the experiment on UO-31 renal, with RXF 393 renal, with 786-0 renal, in the experiment with DU-145 prostate, with M14 melanoma and in the experiment with SW-620 colon was over 100 µM each time. Besides, the TGI in the experiment with KM12 colon, in the experiment with HCT-116 colon, in the experiment with MDA-MB-231 breast, in the experiment with OVCAR-3 ovarian, in the experiment with SNB-19 CNS and in the experiment with LOX IMVI melanoma was over 100 µM each time. Moreover, the TGI in the experiment on UACC-62 melanoma, in the experiment with HT29 colon, in the experiment on HOP-62 NSCLC, with MDA-N and in the experiment on NCI-H226 lung was over 100 µM each time.
With `CC(CO)(CBr)COC(=O)c1cc(Br)c(N)c(Br)c1` (stereo not given), the TGI was 11.3 µM with UO-31 renal; over 100 µM in the experiment on 786-0 renal; over 100 µM with DU-145 prostate; over 100 µM in the experiment with M14 melanoma; over 100 µM with SW-620 colon; over 100 µM with KM12 colon. Moreover, the TGI in the experiment on HCT-116 colon, in the experiment with MDA-MB-231 breast, in the experiment with TK-10 renal, in the experiment with OVCAR-3 ovarian, in the experiment with SNB-19 CNS and in the experiment on LOX IMVI melanoma was over 100 µM throughout. Moreover, the TGI in the experiment on UACC-62 melanoma, in the experiment on HT29 colon, in the experiment on HOP-62 NSCLC, in the experiment with MDA-N and in the experiment on NCI-H226 lung was over 100 µM each time.

These data come from PubChem BioAssay (NCI).
